Test results: PubChem BioAssay AID2327 (Broad Institute, 2010)
Inconclusive results are not listed. Calls of active or inactive are those of the source.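 The calls were made as follows: active = compound whose fitted EC50 for lowering fibroblast viability lies at most a set limit above the top dose tested; inconclusive = flat fit with 30 to 70% activity, or poor fit; inactive = the rest.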

The compounds below were run on NIH-3T3 fibroblast viability, Alamar Blue, 48 h, fluconazole (assay: NIH-3T3 fibroblast cytotoxicity, dose response, cytotoxicity control, cell-based, fluorescence, Alamar Blue, secondary assay (AID 2327)).

Structure (SMILES)	EC50
CC1CCC(C(C)C)C(OC(=O)Cn2c(-c3ccc(Br)cc3)[n+](C)c3ccccc32)C1 (configuration not stated)	> 16 µM (inactive)
CC1CCC(C(C)C)C(OC(=O)C[n+]2cc(-c3ccc(Cl)cc3)n3c2CCCCC3)C1 (configuration not stated)	> 16 µM (inactive)
C[C@]12CC[C@H](O)C[C@@H]1CC[C@@H]1[C@@H]2CC[C@]2(C)C(=O)CC[C@@H]12	> 16 µM (inactive)
O=C1/C(=C\c2cccnc2)SC(=S)N1C1CCS(=O)(=O)C1 (configuration not stated)	> 16 µM (inactive)
NC(=NCCCCCCN=C(N)/N=C(\N)Nc1ccc(Cl)cc1)/N=C(\N)Nc1ccc(Cl)cc1	> 16 µM (inactive)
O=C1/C(=C/c2cccnc2)SC(=S)N1C1CCS(=O)(=O)C1 (configuration not stated)	> 15 µM (inactive)
C[C@]12CCC3[C@@H](CC[C@H]4C[C@@H](O)CC[C@]34C)C1CCC2=O (some centres not stated)	> 15 µM (inactive)
